Data: PMC12042115 (mLife, 2025)

Tested on: wild‐type BCG cells
Type: cell-based, M. bovis BCG
Settings: up-regulated

O=C(Oc1ccc(Cl)cc1)c1ccc(N2CCOCC2)c([N+](=O)[O-])c1 [GDI‐5755]
2.8: Mean_Ratio (GDI5755_3d vs DMSO_3d), protein BCG_0182 (A1KEW6, Mtb Rv0146, Putative S-adenosyl-L-methionine-dependent methyltransferase)
1.4: Mean_Ratio (GDI5755_3d vs DMSO_3d), protein BCG_0192 (A0A0H3M9W8, Mtb Rv0156, proton-translocating NAD(P)(+) transhydrogenase,pntAb) | Mean_Ratio (GDI5755_3d vs DMSO_3d), protein BCG_0463c (A0A0H3M270, Mtb Rv0424c, Uncharacterized protein) | Mean_Ratio (GDI5755_3d vs DMSO_3d), protein BCG_0835 (A0A0H3M322, Mtb Rv0784, Deacetylase) | Mean_Ratio (GDI5755_3d vs DMSO_3d), protein BCG_2360c (A0A0H3M719, Mtb Rv2338c, Possible molybdopterin biosynthesis protein moeW) | Mean_Ratio (GDI5755_3d vs DMSO_3d), protein BCG_0517 (A0A0H3M881, Mtb Rv0476, Possible conserved transmembrane protein) | Mean_Ratio (GDI5755_3d vs DMSO_3d), protein BCG_2934c (A0A0H3M896, Mtb Rv2913c, Possible D-amino acid aminohydrolase) | Mean_Ratio (GDI5755_3d vs DMSO_3d), protein BCG_3532 (A0A0H3M969, HNH nuclease domain-containing protein) | Mean_Ratio (GDI5755_3d vs DMSO_3d), protein BCG_3881 (A0A0H3MA52, Mtb Rv3819, Uncharacterized protein) | Mean_Ratio (GDI5755_3d vs DMSO_3d), protein BCG_0595c (A0A0H3MAN8, Mtb Rv0550c, Antitoxin VapB3) | Mean_Ratio (GDI5755_3d vs DMSO_3d), protein BCG_3239 (A0A0H3MAP0, Conserved hypothetical alanine valine rich protein) | Mean_Ratio (GDI5755_3d vs DMSO_3d), protein BCG_0774 (A0A0H3MAY5, Mtb Rv0724, Possible protease IV sppA (Endopeptidase IV)) | Mean_Ratio (GDI5755_3d vs DMSO_3d), protein BCG_3590 (A0A0H3MBE7, Mtb Rv3526, Rieske-type oxygenase) | Mean_Ratio (GDI5755_3d vs DMSO_3d), protein BCG_2026 (A0A0H3MBK2, Mtb Rv2009, Antitoxin VapB15, BCG_2026) | Mean_Ratio (GDI5755_3d vs DMSO_3d), protein BCG_2056c (A0A0H3MBM9, Mtb MRA_2052, conserved transmembrane protein) | Mean_Ratio (GDI5755_3d vs DMSO_3d), protein BCG_1028c (A0A0H3MBR5, Mtb Rv0974c, Probable acetyl-/propionyl-coa carboxylase (Beta subunit) accD2) | Mean_Ratio (GDI5755_3d vs DMSO_3d), protein BCG_3824c (A0A0H3MBY6, Mtb Rv3765c, Two component transcriptional regulatory protein，TcrX) | Mean_Ratio (GDI5755_3d vs DMSO_3d), protein BCG_1101c (A0A0H3MBZ0, Mtb Rv1043c, Serine protease，BCG_1101c) | Mean_Ratio (GDI5755_3d vs DMSO_3d), protein BCG_2656 (A0A0H3MD16, Mtb Rv2629, Uncharacterized protein) | Mean_Ratio (GDI5755_3d vs DMSO_3d), protein BCG_3528 (A0A0H3MEV5, Mtb Rv3463, Luciferase-like domain-containing protein) | Mean_Ratio (GDI5755_3d vs DMSO_3d), protein BCG_2502c (A0A0H3MFM6, Mtb Rv2484c, Diacylglycerol O-acyltransferase) | Mean_Ratio (GDI5755_3d vs DMSO_3d), protein BCG_2658 (A0A0H3MG12, Mtb Rv2631, tRNA-splicing ligase RtcB) | Mean_Ratio (GDI5755_3d vs DMSO_3d), protein BCG_3119c (A0A0H3MH35, Mtb Rv3094c, Hydroxylase) | Mean_Ratio (GDI5755_3d vs DMSO_3d), protein BCG_0095 (A1KEN2, Mtb Rv0064, UPF0182 protein BCG_0095) | Mean_Ratio (GDI5755_3d vs DMSO_3d), protein BCG_0390 (A1KFH3, Mtb Rv0351, Protein GrpE/HSP-70 cofactor) | Mean_Ratio (GDI5755_3d vs DMSO_3d), protein BCG_1036 (A1KHB7, Mtb Rv0981, Response regulator MprA) | Mean_Ratio (GDI5755_3d vs DMSO_3d), protein BCG_1284 (A1KI12, Mtb Rv1224, Sec-independent protein translocase protein TatB)
1.6: Mean_Ratio (GDI5755_3d vs DMSO_3d), protein BCG_1609 (A0A0H3M480, Mtb Rv1557, conserved transmembrane transport protein mmpL6) | Mean_Ratio (GDI5755_3d vs DMSO_3d), protein BCG_0413c (A0A0H3MAE2, Mtb Rv0375c, carbon monoxyde dehydrogenase (Medium chain)) | Mean_Ratio (GDI5755_3d vs DMSO_3d), protein BCG_3928 (A0A0H3MAW6, Mtb Rv3865, ESX-1 secretion-associated protein EspF) | Mean_Ratio (GDI5755_3d vs DMSO_3d), protein BCG_0725c (A0A0H3MAX0, Mtb Rv0676c,, conserved transmembrane transport protein mmpL5) | Mean_Ratio (GDI5755_3d vs DMSO_3d), protein BCG_3476 (A0A0H3MB64, Mtb Rv3406, Probable dioxygenase) | Mean_Ratio (GDI5755_3d vs DMSO_3d), protein BCG_2613 (A0A0H3MCY6, Mtb Rv2590, Carboxylic acid reductase,fadD9) | Mean_Ratio (GDI5755_3d vs DMSO_3d), protein BCG_3591 (A0A0H3MID2, Mtb Rv3527, Uncharacterized protein)
2.1: Mean_Ratio (GDI5755_3d vs DMSO_3d), protein BCG_0761 (A0A0H3M268, Mtb Rv0711, Possible arylsulfatase atsA)
2.3: Mean_Ratio (GDI5755_3d vs DMSO_3d), protein BCG_3298 (A0A0H3MAT3, Mtb Rv3269, peptidoglycan-based cell wall/chaperonin-like protein,pacL1) | Mean_Ratio (GDI5755_3d vs DMSO_3d), protein BCG_0248 (A1KF31, Mtb Rv0211, Phosphoenolpyruvate carboxykinase [GTP], pckG)
1.5: Mean_Ratio (GDI5755_3d vs DMSO_3d), protein BCG_0727 (A0A0H3M257, Mtb Rv0678, Transcriptional regulator, MmpR5) | Mean_Ratio (GDI5755_3d vs DMSO_3d), protein BCG_0351 (A0A0H3M331, Mtb MRA_0320, Uncharacterized protein) | Mean_Ratio (GDI5755_3d vs DMSO_3d), protein BCG_0391 (A0A0H3M380, Mtb Rv0352, Chaperone protein DnaJ) | Mean_Ratio (GDI5755_3d vs DMSO_3d), protein BCG_1549 (A0A0H3M660, Mtb MRA_1496, Conserved membrane protein) | Mean_Ratio (GDI5755_3d vs DMSO_3d), protein BCG_3281c (A0A0H3MAS0, Mtb Rv3252c, transmembrane alkane 1-monooxygenase alkB) | Mean_Ratio (GDI5755_3d vs DMSO_3d), protein BCG_1890c (A0A0H3MB87, Mtb Rv1854c, NADH dehydrogenase ndh) | Mean_Ratio (GDI5755_3d vs DMSO_3d), protein BCG_2794c (A0A0H3MGD9, Mtb Rv2777c, Metal-dependent hydrolase) | Mean_Ratio (GDI5755_3d vs DMSO_3d), protein BCG_2984 (A0A0H3MGS1, Mtb Rv2963, integral membrane protein) | Mean_Ratio (GDI5755_3d vs DMSO_3d), protein BCG_3299 (A0A0H3MHJ0, Mtb Rv3270, metal cation-transporting P-type atpase C ctpC) | Mean_Ratio (GDI5755_3d vs DMSO_3d), protein BCG_3917c (A0A0H3MJE2, Mtb Rv3854c, Monooxygenase ethA) | Mean_Ratio (GDI5755_3d vs DMSO_3d), protein BCG_0389 (A1KFH2, Mtb Rv0350, Chaperone protein DnaK/Heat shock protein 70)
1.8: Mean_Ratio (GDI5755_3d vs DMSO_3d), protein BCG_2010c (A0A0H3M561, Mtb Rv1993c, DUF1490 family protein) | Mean_Ratio (GDI5755_3d vs DMSO_3d), protein BCG_2346c (A0A0H3M622, Mtb Rv2325c, Energy-coupling factor transporter transmembrane protein EcfT) | Mean_Ratio (GDI5755_3d vs DMSO_3d), protein BCG_0181 (A1KEW5, Mtb Rv0145, S-adenosyl-L-methionine-dependent methyltransferase BCG_0181)
2.5: Mean_Ratio (GDI5755_3d vs DMSO_3d), protein BCG_0605c (A1KG37, Mtb Rv0560c, Benzoquinone methyltransferase/Rv0560c/htm)
3.9: Mean_Ratio (GDI5755_3d vs DMSO_3d), protein BCG_0289c (A0A0H3MA45, Mtb Rv0251c, HSP20 family protein/ Heat stress induced ribosome-binding protein A,acr2)
1.7: Mean_Ratio (GDI5755_3d vs DMSO_3d), protein BCG_3567c (A0A0H3M9P9, Mtb Rv3503c, Ferredoxin, fdxD) | Mean_Ratio (GDI5755_3d vs DMSO_3d), protein BCG_0108c (A0A0H3M9Q4, Mtb Rv0077c, Probable oxidoreductase) | Mean_Ratio (GDI5755_3d vs DMSO_3d), protein BCG_0465c (A0A0H3M812, Mtb MRA_0431, Possible transmembrane protein) | Mean_Ratio (GDI5755_3d vs DMSO_3d), protein BCG_0380 (A0A0H3MAC3, Mtb Rv0341, Isoniazid inductible gene protein iniB) | Mean_Ratio (GDI5755_3d vs DMSO_3d), protein BCG_3319c (A0A0H3MAV3, Mtb Rv3290c, L-lysine 6-transaminase, lat) | Mean_Ratio (GDI5755_3d vs DMSO_3d), protein BCG_2486c (A0A0H3MFK9, Mtb Rv2466c, DSBA-like thioredoxin domain-containing protein)
1.9: Mean_Ratio (GDI5755_3d vs DMSO_3d), protein BCG_0883 (A1KGW3, Mtb Rv0830, S-adenosyl-L-methionine-dependent methyltransferase)
1.3: Mean_Ratio (GDI5755_3d vs DMSO_3d), protein BCG_2009c (A0A0H3M639, Mtb Rv1992c, Probable metal cation transporter P-type atpase G ctpG) | Mean_Ratio (GDI5755_3d vs DMSO_3d), protein BCG_2455 (A0A0H3M775, Mtb Rv2436, Ribokinase, rbsK) | Mean_Ratio (GDI5755_3d vs DMSO_3d), protein BCG_0993 (A0A0H3M955, Mtb Rv0939, Possible bifunctional enzyme: 2-hydroxyhepta-2,4-diene-1,7-dioate isomerase + cyclase/dehydrase) | Mean_Ratio (GDI5755_3d vs DMSO_3d), protein BCG_3038 (A0A0H3MA42, Mtb Rv3016, Probable lipoprotein lpqA) | Mean_Ratio (GDI5755_3d vs DMSO_3d), protein BCG_3758 (A0A0H3MAA8, Mtb Rv3699, Methyltransferase domain-containing protein) | Mean_Ratio (GDI5755_3d vs DMSO_3d), protein BCG_0516 (A1KFU9, Mtb Rv0475, Heparin-binding hemagglutinin)
